In ChEMBL document CHEMBL3124891, “Tetrahydroquinoline derivatives as potent and selective factor XIa inhibitors” (J Med Chem, 2014):

Assays:
Coagulation factor X = Coagulation factor X (Homo sapiens, UniProt P00742); experiment: Binding affinity to human factor 10a assessed as release of p-nitroaniline after 10 to 120 mins by spectrophotometric analysis
Coagulation factor XI = Coagulation factor XI (Homo sapiens, UniProt P03951); experiment: Binding affinity to human factor 11a assessed as release of p-nitroaniline after 10 to 120 mins by spectrophotometric analysis
Coagulation factor VII = target: T1, Coagulation factor VII (Homo sapiens, UniProt P08709); experiment: Binding affinity to human factor 7a assessed as release of p-nitroaniline after 10 to 120 mins by spectrophotometric analysis
T1 sequence (P08709 whole entry): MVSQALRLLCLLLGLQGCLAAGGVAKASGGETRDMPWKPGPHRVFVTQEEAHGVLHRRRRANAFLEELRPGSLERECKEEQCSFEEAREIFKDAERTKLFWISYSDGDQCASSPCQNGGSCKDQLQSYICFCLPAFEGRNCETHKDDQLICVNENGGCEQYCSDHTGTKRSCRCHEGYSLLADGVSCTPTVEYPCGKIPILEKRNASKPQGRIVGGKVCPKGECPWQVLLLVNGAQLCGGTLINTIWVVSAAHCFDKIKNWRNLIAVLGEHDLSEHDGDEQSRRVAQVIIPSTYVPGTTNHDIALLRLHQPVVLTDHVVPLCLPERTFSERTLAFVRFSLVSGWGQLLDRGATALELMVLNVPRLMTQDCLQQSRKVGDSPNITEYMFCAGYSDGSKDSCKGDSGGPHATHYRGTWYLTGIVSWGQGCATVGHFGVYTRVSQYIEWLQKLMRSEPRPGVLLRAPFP

Homo sapiens [1] = species: Homo sapiens; experiment: Selectivity ratio of Ki for human factor 7a to Ki for human factor 11a
Homo sapiens [2] = species: Homo sapiens; experiment: Selectivity ratio of Ki for human factor 10a to Ki for human factor 11a
Plasma = experiment: Anticoagulant activity in human plasma assessed as concentration required to double activated partial thromboplastin time; format: functional

Coagulation factor X, sequence (P00742 41-179 limits assumed): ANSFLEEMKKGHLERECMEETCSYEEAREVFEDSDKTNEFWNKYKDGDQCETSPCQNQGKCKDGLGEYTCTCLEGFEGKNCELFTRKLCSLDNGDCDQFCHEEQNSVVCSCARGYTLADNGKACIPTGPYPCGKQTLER
Coagulation factor X, sequence (P00742 235-488 limits assumed): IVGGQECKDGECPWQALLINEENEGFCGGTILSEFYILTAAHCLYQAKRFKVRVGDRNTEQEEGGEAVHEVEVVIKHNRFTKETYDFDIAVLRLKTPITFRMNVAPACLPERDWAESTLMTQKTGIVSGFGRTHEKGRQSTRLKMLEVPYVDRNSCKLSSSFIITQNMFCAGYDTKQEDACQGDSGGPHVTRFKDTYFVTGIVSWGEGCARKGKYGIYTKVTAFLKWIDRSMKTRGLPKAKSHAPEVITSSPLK
Coagulation factor XI, sequence (P03951 19-387 limits assumed): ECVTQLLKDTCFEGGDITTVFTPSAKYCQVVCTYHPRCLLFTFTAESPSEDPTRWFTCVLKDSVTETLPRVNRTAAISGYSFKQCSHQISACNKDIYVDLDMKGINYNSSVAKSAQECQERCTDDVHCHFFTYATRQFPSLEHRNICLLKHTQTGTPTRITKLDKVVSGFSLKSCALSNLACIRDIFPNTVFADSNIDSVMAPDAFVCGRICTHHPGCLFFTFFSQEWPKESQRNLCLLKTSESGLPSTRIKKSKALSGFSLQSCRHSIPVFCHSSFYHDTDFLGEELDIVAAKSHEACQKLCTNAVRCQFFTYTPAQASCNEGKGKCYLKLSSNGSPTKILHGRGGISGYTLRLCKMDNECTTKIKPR
Coagulation factor XI, sequence (P03951 388-625 limits assumed): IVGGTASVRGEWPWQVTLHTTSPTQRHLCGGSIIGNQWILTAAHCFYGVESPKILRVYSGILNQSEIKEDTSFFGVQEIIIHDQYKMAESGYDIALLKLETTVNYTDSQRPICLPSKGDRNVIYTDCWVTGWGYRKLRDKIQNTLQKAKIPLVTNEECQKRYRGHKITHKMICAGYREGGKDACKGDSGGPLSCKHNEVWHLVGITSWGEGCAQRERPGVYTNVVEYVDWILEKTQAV

Row | SMILES | Ki (Coagulation factor X) [µM] | Ki (Coagulation factor XI) [µM] | Ki (Coagulation factor VII) [µM] | Ratio Ki (Homo sapiens [1]) | Ratio Ki (Homo sapiens [2]) | EC (Plasma) [µM]
1 | N=C(N)c1ccc2c(c1)[C@@H](c1ccccc1)C[C@@H](c1ccccc1-c1ccccc1C(=O)O)N2 (racemic) | 1.94 | 0.11 | 2.2 |  |  | 
2 | N=C(N)c1ccc2c(c1)[C@@H](c1ccccc1)C[C@@H](c1ccccc1-c1ccc(C(=O)O)cc1)N2 (racemic) |  | 2.4 |  |  |  | 
3 | C[C@]1(c2ccccc2)C[C@@H](c2cccc(-c3ccc(C(=O)O)cc3C(=O)O)c2)Nc2ccc(C(=N)N)cc21 (racemic) | 9.3 | 0.061 | 2.6 |  |  | 
4 | CC[C@]1(c2ccccc2)C[C@@H](c2cccc(-c3ccc(C(=O)O)cc3C(=O)O)c2)Nc2ccc(C(=N)N)cc21 (racemic) |  | 0.83 |  |  |  | 
5 | CCC[C@]1(c2ccccc2)C[C@@H](c2cccc(-c3ccc(C(=O)O)cc3C(=O)O)c2)Nc2ccc(C(=N)N)cc21 (racemic) |  | 1.96 |  |  |  | 
6 | C[C@]1(c2ccccc2)C[C@@H](c2cccc(-c3ccc(N)cc3C(=O)O)c2)Nc2ccc(C(=N)N)cc21 (racemic) | 3.98 | 0.064 | 0.275 |  |  | 
7 | COC(=O)c1ccc(-c2cccc([C@@H]3C[C@](C)(c4ccccc4)c4cc(C(=N)N)ccc4N3)c2)c(C(=O)O)c1 (racemic) | 0.606 | 0.079 | 0.442 |  |  | 
8 | C[C@]1(c2ccccc2)C[C@@H](c2cccc(-c3ccccc3C(=O)O)c2)Nc2ccc(C(=N)N)cc21 (racemic) | 6.7 | 0.11 | 3.06 |  |  | 
9 | CC(=O)Nc1ccc(-c2cccc([C@@H]3C[C@](C)(c4ccccc4)c4cc(C(=N)N)ccc4N3)c2)c(C(=O)O)c1 (racemic) | 5.81 | 0.11 | 0.705 |  |  | 
10 | CNC(=O)c1ccc(-c2cccc([C@@H]3C[C@](C)(c4ccccc4)c4cc(C(=N)N)ccc4N3)c2)c(C(=O)O)c1 (racemic) | 4.1 | 0.154 | 1.96 |  |  | 
11 | CC(C)NC(=O)c1ccc(-c2cccc([C@@H]3C[C@](C)(c4ccccc4)c4cc(C(=N)N)ccc4N3)c2)c(C(=O)O)c1 (racemic) | 1.31 | 0.207 | 1.77 |  |  | 
12 | CN(C)Cc1ccc(-c2cccc([C@@H]3C[C@](C)(c4ccccc4)c4cc(C(=N)N)ccc4N3)c2)c(C(=O)O)c1 (racemic) | > 15 | 0.466 | 0.61 |  |  | 
13 | CC(C)(C)NC(=O)c1ccc(-c2cccc([C@@H]3C[C@](C)(c4ccccc4)c4cc(C(=N)N)ccc4N3)c2)c(C(=O)O)c1 (racemic) | 6.4 | 0.54 | 1.29 |  |  | 
14 | CC1(c2ccccc2)CC(c2cccc(-c3ccc(C(N)=O)cc3C(=O)O)c2)Nc2ccc(C(=N)N)cc21 (single isomer, unassigned; (+)) [listing 2 of 2 here] |  |  |  | 200 | > 1000 | 
15 | CC(C)CC(=O)Nc1cc(-c2ccc(C(N)=O)cc2C(=O)O)cc(C2CC(C)(c3ccccc3)c3cc(C(=N)N)ccc3N2)c1 (single isomer, unassigned; enantiomer 1) | 5.67 | 0.23 | > 10.9 |  |  | 
16 | CC1(c2ccccc2)CC(c2cccc(-c3ccc(C(N)=O)cc3C(=O)O)c2)Nc2ccc(C(=N)N)cc21 (single isomer, unassigned; enantiomer 2) | > 15 | 0.335 | > 15 |  |  | 

More lines, in order of falling Ki (Coagulation factor XI), values ahead:

Row | Ki (Coagulation factor X) [µM] | Ki (Coagulation factor XI) [µM] | Ki (Coagulation factor VII) [µM] | Ratio Ki (Homo sapiens [1]) | Ratio Ki (Homo sapiens [2]) | SMILES | EC (Plasma) [µM]
17 | 2.06 | 0.048 | 0.867 |  |  | C[C@]1(c2ccccc2)C[C@@H](c2cccc(-c3ccc(C#N)cc3C(=O)O)c2)Nc2ccc(C(=N)N)cc21 (racemic) | 
18 | > 15 | 0.037 | 0.237 |  |  | C[C@]1(c2ccccc2)C[C@@H](c2cccc(-c3ccc(NS(C)(=O)=O)cc3C(=O)O)c2)Nc2ccc(C(=N)N)cc21 (racemic) | 
19 | 8.35 | 0.026 | 16.3 |  |  | C[C@]1(c2ccccc2)C[C@H](c2cccc(-c3ccc(C(N)=O)cc3C(=O)O)c2)Nc2ccc(C(=N)N)cc21 (racemic) | 
20 | 1.1 | 0.025 | 0.095 | 4 | 40 | CC(C)CNC(=O)c1ccc(-c2ccccc2[C@@H]2C[C@H](c3ccccc3)c3cc(C(=N)N)ccc3N2)c(C(=O)O)c1 (racemic) | 
21 | 0.024 | 0.023 | 0.025 |  |  | CC(C)CNC(=O)c1ccc(-c2cccc([C@@H]3C[C@H](c4ccccc4)c4cc(C(=N)N)ccc4N3)c2)c(C(=O)O)c1 (racemic) | 
22 | 1.14 | 0.015 | 0.451 |  |  | CNC(=O)Nc1ccc(-c2cccc([C@@H]3C[C@](C)(c4ccccc4)c4cc(C(=N)N)ccc4N3)c2)c(C(=O)O)c1 (racemic) | 
23 | 0.97 | 0.0085 | 0.29 | 30 | 100 | N=C(N)c1ccc2c(c1)[C@@H](c1ccccc1)C[C@@H](c1ccccc1-c1ccc(C(=O)O)cc1C(=O)O)N2 (racemic) | 
24 | 0.057 | 0.0076 | 0.041 |  |  | N=C(N)c1ccc2c(c1)[C@@H](c1ccccc1)C[C@@H](c1cc(N)cc(-c3ccccc3C(=O)O)c1)N2 (racemic) | 
25 | 0.13 | 0.0039 | 0.089 | 20 | 30 | N=C(N)c1ccc2c(c1)[C@@H](c1ccccc1)C[C@@H](c1cccc(-c3ccc(C(=O)O)cc3C(=O)O)c1)N2 (racemic) | 
26 | 3 | 0.0015 | 0.28 |  |  | C[C@]1(c2ccccc2)C[C@@H](c2cccc(-c3ccc(C(N)=O)cc3C(=O)O)c2)Nc2ccc(C(=N)N)cc21 (racemic) | 8.6
27 | 1.81 | 0.001 | 0.23 |  |  | CC(=O)Nc1cc(-c2ccc(C(N)=O)cc2C(=O)O)cc([C@@H]2C[C@](C)(c3ccccc3)c3cc(C(=N)N)ccc3N2)c1 (racemic) | 2.1
28 | 0.88 | 0.00072 | 0.474 |  |  | C[C@]1(c2ccccc2)C[C@@H](c2cc(NC(=O)C3CC3)cc(-c3ccc(C(N)=O)cc3C(=O)O)c2)Nc2ccc(C(=N)N)cc21 (racemic) | 4.5
29 | 1.48 | 0.00069 | 0.45 |  |  | CCC(=O)Nc1cc(-c2ccc(C(N)=O)cc2C(=O)O)cc([C@@H]2C[C@](C)(c3ccccc3)c3cc(C(=N)N)ccc3N2)c1 (racemic) | 3.4
30 | 2.25 | 0.00064 | 0.056 |  |  | C[C@]1(c2ccccc2)C[C@@H](c2cc(N)cc(-c3ccc(C(N)=O)cc3C(=O)O)c2)Nc2ccc(C(=N)N)cc21 (racemic) | 1.2
31 | 0.784 | 0.00059 | 1.01 |  |  | CC(C)CC(=O)Nc1cc(-c2ccc(C(N)=O)cc2C(=O)O)cc([C@@H]2C[C@](C)(c3ccccc3)c3cc(C(=N)N)ccc3N2)c1 (racemic) | 6.1
32 | 2.33 | 0.00039 | 0.086 |  |  | CC1(c2ccccc2)CC(c2cccc(-c3ccc(C(N)=O)cc3C(=O)O)c2)Nc2ccc(C(=N)N)cc21 (single isomer, unassigned; (+)) [listing 1 of 2 here] | 
33 | 0.641 | 0.0003 | 0.52 |  |  | CCCC(=O)Nc1cc(-c2ccc(C(N)=O)cc2C(=O)O)cc([C@@H]2C[C@](C)(c3ccccc3)c3cc(C(=N)N)ccc3N2)c1 (racemic) | 4.1
